Reference: patent US20130331332A1, “COMPOSITION COMPRISING PEROXISOME PROLIFERATOR-ACTIVATED RECEPTOR-GAMMA” (MERZ PHARMA GmbH & Co. KGaA, priority 2011, published 2013)

Legend:
Format in all cases: cell-based, human
[1] = tested on: adipose-derived stem cells (ASCs); test: Oil-O-Red staining of fat vacuoles in adipose-derived stem cells (Example 6); conditions: for adipogenic differentiation / development of fat vacuoles (Oil-O-Red staining): 3 weeks of incubation in NM; for formation of fat vacuoles / adipogenic differentiation (Oil-O-Red staining): PPARγ 2.7, 1, 0.5 or 0.1 μg/ml
Experimental: The induction of adipogenic differentiation by recombinant PPARγ was verified by Oil-O-Red staining of fat vacuoles. Human adipose-derived stem cells (ASCs) from 4 different donors were isolated as described in example 3. The cells were cultured for 2 weeks in “NM”, a standard culture medium of Dulbecco's modified Eagle's medium with a physiologic glucose concentration of 100 mg/dl (DMEM, Sigma, Germany) supplemented with 10% fetal calf serum (FCS; PAA, Germany) and medium was changed every 5-6 days. Cells were cultured in NM containing 2.7 μg/ml, 1 μg/ml, 0.5 μg/ml, or 0.1 μg/ml of PPARγ (Thermo Scientific-Pierce, PPARgamma human), respectively, or 5 μM Pioglitazone (Sigma-Aldrich, Germany), or 5 μM Pioglitazone and 2.7 μg/ml PPARγ, or 5 μM Pioglitazone and 0.1 μg/ml PPARγ. Controls were cultured in NM.
After 2 weeks in culture the formation of lipid droplets which is indicative of the ability to differentiate was verified by Oil-O-Red staining. Oil-O-Red is a fat-soluble dye used for the staining of neutral triglycerides. […] After fixation with 4% paraformaldehyde for 20 minutes, the cells were incubated for a staining time of 1 hour with a 0.5% Oil-O-Red (Sigma) solution in Isopropanol/glycerine. The Oil-O-Red staining was evaluated microscopically.
Further cells were cultured in NM containing 5 μM Pioglitazone (Sigma-Aldrich, Germany), or 5 μM Pioglitazone and 2.7 μg/ml PPARγ, or 5 μM Pioglitazone and 0.1 μg/ml PPARγ.
Further cell samples were cultured in “AM-” composed of DMEM with 4500 mg/l glucose, 10 μM insulin (Novo Nordisk), 1 μM dexamethasone (Ratiopharm), 10% FCS. Cell samples were cultured in AM- containing 2.7 μg/ml, 1 μg/ml, 0.5 μg/ml, or 0.1 μg/ml of PPARγ, respectively, or 5 μM Pioglitazone, or 5 μM Pioglitazone and 2.7 μg/ml PPARγ. Negative control cells were cultured in AM-. Cells incubated with DMEM with 4500mg/l glucose, 10 μM insulin (Novo Nordisk), 1 μM dexamethasone (Ratiopharm), 10% FCS and 1 mM isobutyl-methylxanthin (Sigma) and 200 μM indometacin (Fluka) were used as a positive induction control.
Culturing of cells in NM and in AM- containing the different PPARγ concentrations as given above was repeated with an incubation period of 3 weeks.

[2] = tested on: adipose-derived stem cells; test: Cell proliferation of adipose-derived stem cells, MTT photometric assay (Example 4); conditions: 6 days, FIG. 1
Experimental: Cell proliferation was determined by a photometric assay using MTT (3-(4,5-dimethylthiazol-2-yl)-2,5-diphenyltetrazolium bromide). In brief, human adipose-derived stem cells were isolated from 5 different donors according to example 3 and 1.5×10^4 cells were seeded in 96-well-plates. Cell samples were used in quadruplicate in each experiment. The human adipose-derived stem cells were cultured for 6 days in two different media containing PPARγ or control media. Recombinant PPARγ (recPPARγ) (Thermo Scientific-Pierce, PPARgamma human) was solved in dimethyl sulfoxide (DMSO) at a concentration of 270 µg/ml and used as a stock solution. Working solutions were prepared by dilution using a factor of 1:100 for a final concentration of 2.7 μg/ml, a factor of 1:270 for a final concentration of 1 μg/ml, a factor of 1:540 for a final concentration of 0.5 μg/ml, and a factor of 1:2700 for a final concentration of 0.1 μg/ml. […]
After 6 days of culturing, the cells were incubated in PBS containing MTT at 37° C. for 4 hours. Afterwards, the medium was removed, 0.04 N HCl was added, and absorbance was measured in a microplate reader at 550 nm versus 650 nm. […]

[3] = tested on: adipose-derived stem cells (ASC); test: Induction of adipocyte differentiation by PPARgamma, oil red O staining (Example 2); conditions: PPARgamma 0.0001%, 0.01% and 1% by weight in culture media; 5 days incubation, further 9 days in culture; oil red O staining of lipid droplets
Experimental: The ability of peroxisome proliferator-activated receptor-gamma to induce differentiation of adipocytes was studied in adipose-derived stem cells (ASC). Human adipose-derived stem cells were obtained by liposuction and cultured following a published procedure (Crandall et al, Endocrinology 140:154-8, 1999). In brief, adipose tissue was digested with 2 mg/mL collagenase in Krebs-Ringer-bicarbonate buffer (pH 7.4). The preadipocyte fraction was resuspended in growth medium, transferred to a culture flask, and maintained in an incubator at 37° C., and 5% CO2. Cell attachment was allowed for 16-20 h and afterwards the cells that had not adhered were removed.
Peroxisome proliferator-activated receptor-gamma (PPARgamma) was added to respective final concentrations of 0.0001%, 0.01% and 1% by weight to the culture media 24 hours after the cells were seeded. The media was changed every three days and supplemented with fresh peroxisome proliferator-activated receptor-gamma. The cells were incubated with peroxisome proliferator-activated receptor-gamma for 5 days. Afterwards peroxisome proliferator-activated receptor-gamma was removed, and the cells were kept for further 9 days in culture for observation of lipid droplet formation, which is indicative of the ability to differentiate. Controls were run in medium without peroxisome proliferator-activated receptor-gamma. […]

[4] = tested on: adipose-derived stem cells; test: Photometric measurement (optical density) of adipogenic differentiation in adipose-derived stem cells (Example 5); conditions: 2 weeks of culturing, FIG. 2
Experimental: The induction of adipogenic differentiation by recombinant PPARγ was tested in human adipose-derived stem cells from 4 different donors isolated as described in example 3. The cells were cultured for 2 weeks, and media were changed every 5-6 days. Cell samples were seeded with 1.5×10^4 cells in 96-well-plates. Recombinant PPARγ (recPPARγ) (Thermo Scientific-Pierce, PPARgamma human) was solved in dimethyl sulfoxide (DMSO) at a concentration of 270 µg/ml and used as a stock solution. Working solutions were prepared by dilution using a factor of 1:100 for a final concentration of 2.7 μg/ml, a factor of 1:270 for a final concentration of 1 μg/ml, a factor of 1:540 for a final concentration of 0.5 μg/ml, and a factor of 1:2700 for a final concentration of 0.1 μg/ml.
Cells were cultured in two different media, either in “NM”, a standard culture medium of Dulbecco's modified Eagle's medium with a physiologic glucose concentration of 100 mg/dl (DMEM, Sigma, Germany) supplemented with 10% fetal calf serum (FCS; PAA, Germany), or in “AM-” composed of DMEM with 4500 mg/l glucose (high glucose) and 10 μM insulin (Novo Nordisk), 1 μM dexamethasone (Ratiopharm), and 10% FCS. Cell samples were cultured in NM containing 2.7 μg/ml, 1 μg/ml, 0.5 μg/ml, or 0.1 μg/ml of PPARγ, respectively. […] After 2 weeks of culturing, the optical density was measured in a microplate reader. […]

Molecule	adipogenic differentiation / development of fat vacuoles (Oil-O-Red staining) [1]	cell proliferation (MTT assay) ([2]; 5 μM Pioglitazone alone, NM standard medium)	Degree of differentiation [3]	cytotoxic effect on cells (cell number by optical density) ([4]; 2.7-0.1 μg/ml PPARγ)	differentiation and proliferation (increase in optical density) ([4]; both media (NM and AM-))	formation of fat vacuoles / adipogenic differentiation (Oil-O-Red staining) ([1]; 2 weeks of culture in AM- medium)	formation of fat vacuoles / adipogenic differentiation (Oil-O-Red staining) ([1]; 2 weeks of culture in NM, Pioglitazone 5 μM, FIG. 3)	formation of fat vacuoles and adipogenic differentiation (Oil-O-Red staining) ([1]; 3 weeks of culture in AM- medium)	cell proliferation (MTT assay) ([2]; 2.7, 1, 0.5 or 0.1 μg/ml PPARγ, both media (NM and AM-))
CCc1ccc(CCOc2ccc(CC3SC(=O)NC3=O)cc2)nc1 (racemic) [Pioglitazone, (RS)-5-{p-[2-(5-ethyl-2-pyridyl)ethoxy]benzyl}-2,4-thiazolidinedione, reference compound]	only slightly induced differentiation	no effect							
PPARγ: Recombinant PPARγ protein (Thermo Scientific-Pierce, PPARgamma human); nuclear hormone receptor transcription factor	heavily induced adipogenic differentiation		++ to +++	no cytotoxic effect	stimulated the differentiation and proliferation	able to induce the formation of fat vacuoles	able to induce the formation of fat vacuoles	induced the formation of fat vacuoles and adipogenic differentiation	stimulated the proliferation of the adipose-derived stem cells in a dose-dependent manner
